Test system: mice initiated with morphine
Assay: Anti-opioid addiction effectiveness test of grouped herbal compounds in mice
Format: in vivo
Description: Mice will be initiated with morphine at 1 mg/ml for 21 days.
The second test: use separate groups of compounds to test effectiveness in mice. The definition of effective.
1. Ten Mice in Each Group.

Question: For `CN1CC[C@]23c4c5ccc(O)c4O[C@H]2[C@@H](O)C=C[C@H]3[C@H]1C5` [Morphine], which Effective (3rd test, regrouped compounds of groups 2 and 9) is on record?
Answer: Yes

Question: And the Effective (second test, ten mice in each group, mice initiated with morphine at 1 mg/ml for 21 days)?
Answer: Yes

— US20190314431A1, “Method of Discovery of Potential Bioactive Compounds in Herbals by Regrouping after Chromatography” (priority 2018, published 2019)
